Measured values published in ChEMBL document CHEMBL5647685.
Active and inactive are the calls of the source. No cut-off for these calls is given here.

Assays:
[1] = test system: MSC; experiment: Bone activity in human MSC cultures assessed as promotion of osteogenesis at 0.1 to 1 uM dosed on days 1 to 7 and measured on day 7 by alkaline phosphatase activity detection detection assay; format: functional; details: dose 0.1-1 µM, time 7.0 day
[2] = test system: MSC; experiment: Induction of osteoblast nodule formation in human MSC cultures assessed as mineral incorporation at 0.1 to 1 uM by blue incubated for 1 to 14 days calcein detection based fluorescent micrography; format: functional, cell-based; details: dose 0.1-1 µM, time 1-14 day
[3] = target: T1, Tyrosine-protein kinase JAK3 (Homo sapiens) (UniProt P52333); experiment: Inhibition of full-length C-terminal his-tagged human JAK3 at 1 uM pre-incubated with enzyme for 1 h prior to the addition of 500 uM ATP relative to control
T1 sequence (whole entry): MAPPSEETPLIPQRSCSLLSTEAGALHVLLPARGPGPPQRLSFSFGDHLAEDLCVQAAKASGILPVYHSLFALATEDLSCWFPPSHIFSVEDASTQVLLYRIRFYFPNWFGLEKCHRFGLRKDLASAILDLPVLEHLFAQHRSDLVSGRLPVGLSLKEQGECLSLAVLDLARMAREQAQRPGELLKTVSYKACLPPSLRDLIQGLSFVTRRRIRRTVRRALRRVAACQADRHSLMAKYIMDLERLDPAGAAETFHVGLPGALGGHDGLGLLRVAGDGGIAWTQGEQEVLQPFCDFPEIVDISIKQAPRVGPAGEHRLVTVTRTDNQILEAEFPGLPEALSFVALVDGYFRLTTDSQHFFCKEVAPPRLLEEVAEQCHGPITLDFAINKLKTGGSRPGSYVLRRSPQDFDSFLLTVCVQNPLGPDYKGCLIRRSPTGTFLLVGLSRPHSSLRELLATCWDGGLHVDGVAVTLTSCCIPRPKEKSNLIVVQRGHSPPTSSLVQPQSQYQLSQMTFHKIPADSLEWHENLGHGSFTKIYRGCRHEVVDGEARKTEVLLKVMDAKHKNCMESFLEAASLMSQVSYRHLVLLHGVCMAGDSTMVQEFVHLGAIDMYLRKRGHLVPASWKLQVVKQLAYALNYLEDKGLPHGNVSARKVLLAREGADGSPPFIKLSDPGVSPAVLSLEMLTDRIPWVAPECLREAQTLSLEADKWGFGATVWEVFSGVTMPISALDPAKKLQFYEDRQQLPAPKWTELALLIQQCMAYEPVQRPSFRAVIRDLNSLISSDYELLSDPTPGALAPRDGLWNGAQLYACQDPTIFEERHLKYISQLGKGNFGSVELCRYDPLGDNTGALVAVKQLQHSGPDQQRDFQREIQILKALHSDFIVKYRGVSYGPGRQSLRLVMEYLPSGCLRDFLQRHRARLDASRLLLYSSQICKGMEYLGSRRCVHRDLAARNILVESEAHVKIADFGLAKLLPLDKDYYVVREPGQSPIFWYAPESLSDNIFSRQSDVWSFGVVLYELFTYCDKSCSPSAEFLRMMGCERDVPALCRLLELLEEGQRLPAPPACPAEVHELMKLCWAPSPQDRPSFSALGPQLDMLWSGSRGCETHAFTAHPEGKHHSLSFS

[4] = target: T2, Aurora kinase A (Homo sapiens) (UniProt O14965); experiment: Inhibition of full-length C-terminal his-tagged human AUR2 at 1 uM pre-incubated with enzyme for 1 h prior to the addition of 500 uM ATP relative to control
T2 sequence (whole entry): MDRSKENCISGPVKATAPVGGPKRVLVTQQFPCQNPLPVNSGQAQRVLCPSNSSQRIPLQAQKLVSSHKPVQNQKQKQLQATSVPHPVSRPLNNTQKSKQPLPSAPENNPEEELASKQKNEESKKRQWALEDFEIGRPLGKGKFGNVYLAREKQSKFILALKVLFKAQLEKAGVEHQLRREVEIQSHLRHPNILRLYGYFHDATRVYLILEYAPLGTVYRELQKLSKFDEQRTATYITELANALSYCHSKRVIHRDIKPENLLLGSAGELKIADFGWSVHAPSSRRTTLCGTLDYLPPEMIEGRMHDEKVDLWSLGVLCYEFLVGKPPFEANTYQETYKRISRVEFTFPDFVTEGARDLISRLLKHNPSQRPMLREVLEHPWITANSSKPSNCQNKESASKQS

[5] = target: High affinity nerve growth factor receptor (Homo sapiens) (UniProt P04629); experiment: Inhibition of full-length C-terminal his-tagged human TRKA at 1 uM pre-incubated with enzyme for 1 h prior to the addition of 500 uM ATP relative to control
High affinity nerve growth factor receptor (Homo sapiens), sequence (P04629 33-796 limits assumed): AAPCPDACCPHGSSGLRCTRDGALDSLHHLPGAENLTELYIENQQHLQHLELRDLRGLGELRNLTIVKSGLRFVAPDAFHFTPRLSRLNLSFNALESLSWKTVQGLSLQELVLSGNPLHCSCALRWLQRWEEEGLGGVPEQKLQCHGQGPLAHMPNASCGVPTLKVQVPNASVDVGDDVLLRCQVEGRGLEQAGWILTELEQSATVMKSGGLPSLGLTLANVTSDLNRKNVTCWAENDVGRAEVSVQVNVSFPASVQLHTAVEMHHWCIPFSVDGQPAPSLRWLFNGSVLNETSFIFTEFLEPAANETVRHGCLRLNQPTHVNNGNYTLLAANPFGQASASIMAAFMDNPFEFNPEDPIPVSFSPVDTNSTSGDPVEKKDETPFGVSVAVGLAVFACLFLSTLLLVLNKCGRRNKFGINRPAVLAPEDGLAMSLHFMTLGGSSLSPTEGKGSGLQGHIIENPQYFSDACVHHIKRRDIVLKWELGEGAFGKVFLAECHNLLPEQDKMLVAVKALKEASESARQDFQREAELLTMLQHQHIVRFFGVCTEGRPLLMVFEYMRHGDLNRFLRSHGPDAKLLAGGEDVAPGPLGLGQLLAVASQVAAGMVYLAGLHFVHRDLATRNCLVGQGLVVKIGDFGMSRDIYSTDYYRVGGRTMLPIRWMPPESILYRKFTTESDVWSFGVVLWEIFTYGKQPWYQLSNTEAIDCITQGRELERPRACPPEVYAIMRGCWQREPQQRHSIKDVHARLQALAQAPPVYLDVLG

[6] = test system: MSC; experiment: Bone activity in human MSC cultures assessed as promotion of osteogenesis at 0.1 to 1 uM dosed on days 4 to 7 and measured on day 7 by alkaline phosphatase activity detection detection assay; format: functional; details: dose 0.1-1 µM, time 4.0 day

| SMILES | Activity [1] | Activity [2] | inhibition [3] | inhibition [4] | inhibition [5] | Activity [6] |
| --- | --- | --- | --- | --- | --- | --- |
| Cc1ccc(-n2nc(C(C)(C)C)cc2NC(=O)Nc2cc(COc3cccnc3)n[nH]2)cc1 | Dose-Dependent Effect | Active |  |  |  |  |
| CN(c1ccccc1CNc1nc(Nc2ccc3c(c2)CC(=O)N3)ncc1C(F)(F)F)S(C)(=O)=O |  | inactive | > 90% | > 90% | > 90% | Active |
